Assays:
[1] = target: isolated guinea pig ascending colon (Cavia porcellus, UniProt O70528); experiment: contraction of isolated guinea pig ascending colon; assay type: cell-based; details: male Hartley guinea pig ascending colon, Tyrode solution 37°C, relative to methacholine (30 µM) contraction; read-out: Contraction of removed colon (EC50)
Procedure: Experimental Example 3 : contraction of isolated guinea pig ascending colon
About 3 cm long ascending colon segment was taken from male Hartley guinea pig and suspended in 10 ml of a Tyrode solution ventilated with a mixed gas of oxygen (95%) and CO2 (5%) at 37°C with the load of 2 g. The contraction was isotonically measured via isotonic transducer. After an equilibrium period of about 30 min, the test compound was administered non-cumulatively from lower concentrations, and dose-dependent contraction was measured. The test compound was administered at 15 minutes intervals. Then, contraction by the test compound in the presence of a 5-HT4 receptor antagonist, 4-amino-3-chloro-6-methoxybenzoic acid · 2-diethylaminoethyl ester (0.3 µM, hereinafter to be referred to as SDZ 205-557) was determined, and antagonistic effect on the reaction by SDZ 205-557 was confirmed.
The contraction by the test compound was evaluated based on the ratio of reaction relative to mean contraction induced by methacholine (30 µM) administered before and after each determination of dose-dependent contraction. The contraction was probit-converted using the maximum value of dose-response curve as 100, and expressed by EC50 as determined from linear regression and maximum reaction ratio.

5-HT3 receptor = target: T1, 5-HT3 receptor (Rattus norvegicus, UniProt P35563); experiment: 5-HT3 receptor binding test; details: [3H]Granisetron 1.0 nM, crude synapse membrane from rat cerebral cortex, 25°C; for IC50: cells marked * are IC50, read-out: Affinity for receptor 5-HT3 (∗ shows IC50); for Ki: cells without asterisk, read-out: Affinity for receptor (Ki value, nM) 5-HT3
T1 construct: crude synapse membrane sample was prepared from rat cerebral cortex; from tissue; host or cells: rat cerebral cortex, crude synaptic membranes
T1 sequence (P35563 24-483): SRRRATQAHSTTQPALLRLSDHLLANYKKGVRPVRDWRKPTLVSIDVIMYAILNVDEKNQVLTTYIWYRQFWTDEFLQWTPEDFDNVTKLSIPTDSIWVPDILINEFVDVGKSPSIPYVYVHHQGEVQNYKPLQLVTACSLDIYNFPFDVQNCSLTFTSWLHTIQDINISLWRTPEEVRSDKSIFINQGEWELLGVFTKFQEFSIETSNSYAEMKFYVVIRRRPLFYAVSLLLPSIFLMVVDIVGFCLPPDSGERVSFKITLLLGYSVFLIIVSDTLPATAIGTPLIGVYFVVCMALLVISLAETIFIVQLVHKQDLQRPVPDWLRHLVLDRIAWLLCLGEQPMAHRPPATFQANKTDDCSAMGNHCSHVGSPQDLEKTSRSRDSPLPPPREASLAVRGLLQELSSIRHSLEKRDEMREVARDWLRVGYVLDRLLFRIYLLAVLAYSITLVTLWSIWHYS
Procedure: Experimental Example 2 : 5-HT3 receptor binding test
According to the method of Peroutka et al (European Journal of Pharmacology, vol. 148, pp. 297-299), a specific 5-HT3 receptor binding test was run using, as a tracer ligand, endo-1-methyl-N-(9-methyl-9-azabicyclo[3.3.1]non-3-yl)-1H-indazole-3-carboxamide substituted by tritium (hereinafter to be referred to as [3H]Granisetron). Specifically, crude synapse membrane sample was prepared from rat cerebral cortex, suspended in 50 mM HEPES buffer (pH 7.4) and used for testing. The test compound having several different concentrations and [3H]Granisetron (final concentration 1.0 nM) were added to this suspension and allowed to react at 25°C. Thirty minutes later, the reaction mixture was filtered by suction with cell harvester. The filter was washed with 50 mM Tris buffer (pH 7.4), and the radioactivity on the filter was counted using liquid scintillation counter or β-plate. The non-specific binding was determined in the presence of 1 µM Tropisetron. The concentration of the test compound necessary for 50% inhibition (IC50) and Ki value were determined from graph.

5-HT4 receptor = target: T2, 5-HT4 receptor (Cavia porcellus, UniProt O70528); experiment: 5-HT4 receptor binding test; set-up: species or system guinea pig; details: [3H]GR113808 0.1 nM, crude synapse membrane from guinea pig striatum, 37°C; read-out: Affinity for receptor (Ki value, nM) 5-HT4
T2 construct: crude synapse membrane sample was prepared from guinea pig striatum; from tissue; host or cells: guinea pig striatum, crude synaptic membranes
T2 sequence (O70528 whole entry): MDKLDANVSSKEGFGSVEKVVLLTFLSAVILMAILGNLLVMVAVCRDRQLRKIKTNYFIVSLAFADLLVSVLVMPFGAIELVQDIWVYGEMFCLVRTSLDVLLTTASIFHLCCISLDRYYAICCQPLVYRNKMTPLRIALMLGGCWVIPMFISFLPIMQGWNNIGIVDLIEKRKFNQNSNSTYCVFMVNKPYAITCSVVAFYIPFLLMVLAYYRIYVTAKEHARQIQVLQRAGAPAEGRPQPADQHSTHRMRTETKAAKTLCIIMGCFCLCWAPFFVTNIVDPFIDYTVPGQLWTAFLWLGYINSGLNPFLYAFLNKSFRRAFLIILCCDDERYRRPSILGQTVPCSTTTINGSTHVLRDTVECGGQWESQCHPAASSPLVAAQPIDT
Procedure: Experimental Example 1 : 5-HT4 receptor binding test
According to the method of C.J. Grossman et al. (British Journal of Pharmacology, vol. 109, pp. 618-624), a specific 5-HT4 receptor binding test was run using, as a tracer ligand, 1-methyl-1H-indole-3-carboxylic acid · 1-(2-methylsulfonylaminoethyl)-piperidin-4-ylmethyl ester substituted by tritium (hereinafter to be referred to as [3H]GR113808). Specifically, crude synapse membrane sample was prepared from guinea pig striatum, suspended in 50 mM HEPES buffer (pH 7.4) and used for testing. The test compound having several different concentrations and [3H]GR113808 (final concentration 0.1 nM) were added to this suspension and allowed to react at 37°C. Thirty minutes later, the reaction mixture was filtered by suction with cell harvester. The filter was washed with 50 mM HEPES buffer, and the radioactivity on the filter was counted by liquid scintillation counter. The non-specific binding was determined in the presence of 1 µM GR113808. The concentration of the test compound necessary for 50% inhibition (IC50) and Ki value were determined from graph.

isolated guinea pig ascending colon, sequence (O70528 whole entry): as above

Row | Compound | EC50 [1] [nM] | IC50 (5-HT3 receptor) [nM] | Ki (5-HT4 receptor) [nM] | Ki (5-HT3 receptor) [nM]
1 | COc1cc(N)c(Cl)cc1C(=O)NCC1CCN(CCCCCNC(=O)c2cccc(Cl)c2)CC1 [Example 30, 4-amino-5-chloro-N-(1-(5-(3-chlorobenzoylamino)pentyl)piperidin-4-ylmethyl)-2-methoxybenzamide] | 1.6 | > 1000 | 0.81 | 
2 | COc1cc(N)c(Cl)cc1C(=O)NCC1CCN(CCCCNC(=O)c2ccc3ccccc3c2)CC1 [Example 25, 4-amino-5-chloro-2-methoxy-N-(1-(4-(2-naphthoylamino)butyl)piperidin-4-ylmethyl) benzamide] | 4.6 | > 1000 | 1.4 | 
3 | COc1cc(N)c(Cl)cc1C(=O)NCC1CCN(CCCCCN2C(=O)c3ccccc3C2=O)C1 (stereo not drawn) [Example 70, 4-amino-5-chloro-N-(1-(5-(2,3-dihydro-1,3-dioxo-1H-isoindol-2-yl)pentyl)pyrrolidin-3-ylmethyl)-2-methoxybenzamide] | 6.7 | > 1000 | 7.4 | 
4 | COc1cc(N)c(Cl)cc1C(=O)NC[C@H]1CCN(CCCCCNC(=O)c2cn(C)c3ccccc23)C1 [Example 88, N-(5-((3R)-3-(4-amino-5-chloro-2-methoxybenzoylaminomethyl)pyrrolidin-1-yl)pentyl)-1-methyl-1H-indole-3-carboxamide] | 1.4 |  | 1.2 | 350
5 | COc1cc(N)c(Cl)cc1C(=O)NC[C@H]1CCN(CCCCNC(=O)c2cn(C)c3ccccc23)C1 [Example 85, N-(4-((3R)-3-(4-amino-5-chloro-2-methoxybenzoylaminomethyl)pyrrolidin-1-yl)butyl)-1-methyl-1H-indole-3-carboxamide] | 1.2 |  | 0.44 | 260

Reference: patent EP0774460A1, “BENZOIC ACID COMPOUND AND USE THEREOF AS MEDICINE” (YOSHITOMI PHARMACEUTICAL INDUSTRIES, LTD., priority 1994, dated 1995)
